Reference: paper PMC2652632 (Biochemistry, 2008)
Entries after “also recorded” stand apart in the source; their conditions may differ.

Assays:
IDE-WT [1] = molecular target: T1, IDE-WT (Homo sapiens, UniProt P14735); assay: Sensitivity of IDE-WT to NEM, GSNO and H2O2; assay type: biochemical; details: for inactivation of IDE by NEM / H2O2 / GSNO (in words): substrates mimicking both Aβ and bradykinin
IDE-CF-123 = assay: Sensitivity of IDE-CF-123 to NEM, GSNO and H2O2; assay type: biochemical, human; details: for inhibition by GSNO / H2O2 (in words): IDE-CF-123, substrate V or FAβB; for sensitivity to GSNO / H2O2 relative to IDE-WT (in words): IDE-CF-123 compared to IDE-WT
IDE-CF-4 = assay: Sensitivity of IDE-CF-4 to NEM, GSNO and H2O2; assay type: biochemical, human; details: for inhibition by GSNO / H2O2 (in words): IDE-CF-4, substrate V or FAβB
IDE-CF-A819C = assay: Sensitivity of IDE-CF-A819C to NEM, GSNO and H2O2; assay type: biochemical, human; details: for sensitivity to GSNO / H2O2 relative to IDE-WT (in words): IDE-CF-A819C compared to IDE-WT; for NEM sensitivity (in words): IDE-CF-A819C
IDE [2] = details: ref 16 (b4: ref 16, 17); cited from earlier work
IDE [3] = assay: Degradation of insulin and short substrates by IDE; assay type: biochemical; details: insulin 100 nM vs kinins 4–7 mM
IDE [4] = details: insulin; literature value, reference not given; cited from earlier work
human IDE (IDE-CF) [5] = molecular target: T2, human IDE (IDE-CF) (Homo sapiens, UniProt P14735, C110L/C171S/C178A/C257V/C414L/C573N/C590S/C789S/C812A/C819A/C904S/C966N/C974A); assay: Kinetic analysis of kinin degradation by IDE-CF; assay type: biochemical; details: for kcat for degradation by IDE: IDE-CF, competition with 0.5 μM substrate V, 50 mM potassium phosphate pH 7.3, 37 °C
T2 sequence (P14735 whole entry C110L/C171S/C178A/C257V/C414L/C573N/C590S/C789S/C812A/C819A/C904S/C966N/C974A): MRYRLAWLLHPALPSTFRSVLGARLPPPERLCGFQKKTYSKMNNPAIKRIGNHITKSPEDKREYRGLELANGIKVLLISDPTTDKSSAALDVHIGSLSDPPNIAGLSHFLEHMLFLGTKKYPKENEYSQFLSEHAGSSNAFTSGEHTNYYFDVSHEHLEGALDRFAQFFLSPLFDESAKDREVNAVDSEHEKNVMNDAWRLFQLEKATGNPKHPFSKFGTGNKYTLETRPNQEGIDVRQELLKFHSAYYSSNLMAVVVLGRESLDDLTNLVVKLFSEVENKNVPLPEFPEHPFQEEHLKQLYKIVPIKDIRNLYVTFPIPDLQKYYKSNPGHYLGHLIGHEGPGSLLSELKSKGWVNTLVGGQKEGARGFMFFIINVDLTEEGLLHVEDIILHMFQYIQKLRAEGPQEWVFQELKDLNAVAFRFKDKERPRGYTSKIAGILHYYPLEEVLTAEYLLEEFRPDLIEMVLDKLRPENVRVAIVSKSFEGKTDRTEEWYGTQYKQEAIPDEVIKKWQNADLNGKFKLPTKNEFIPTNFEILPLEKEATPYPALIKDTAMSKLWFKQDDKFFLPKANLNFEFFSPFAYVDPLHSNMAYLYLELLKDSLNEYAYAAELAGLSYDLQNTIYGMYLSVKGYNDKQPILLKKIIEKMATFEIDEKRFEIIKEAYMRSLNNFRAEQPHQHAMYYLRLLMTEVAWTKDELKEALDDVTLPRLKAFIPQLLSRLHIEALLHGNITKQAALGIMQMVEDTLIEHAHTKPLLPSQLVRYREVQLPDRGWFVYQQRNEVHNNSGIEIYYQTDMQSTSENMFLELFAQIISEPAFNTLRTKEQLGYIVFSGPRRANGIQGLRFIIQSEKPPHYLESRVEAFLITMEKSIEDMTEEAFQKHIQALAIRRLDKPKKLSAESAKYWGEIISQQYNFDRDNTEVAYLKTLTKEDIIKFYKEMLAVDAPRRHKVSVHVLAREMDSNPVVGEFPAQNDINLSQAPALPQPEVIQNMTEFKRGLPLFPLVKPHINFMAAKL

human IDE (IDE-CF) [6] = molecular target: T2, human IDE (IDE-CF); assay: Mass spectrometry analysis of kinins degradation by IDE-CF; assay type: biochemical; details: for major cleavage site: 50 mM potassium phosphate pH 7.3, MALDI-TOF and MS-MS
ACE = details: cited from earlier work
NEP = details: cited from earlier work
IDE-WT [7] = molecular target: T1, IDE-WT; assay: Specific activity of IDE-WT with substrate V; assay type: biochemical; details: 0.5 μM fluorogenic substrate V
IDE-CF [8] = molecular target: T3, IDE-CF (Homo sapiens, UniProt P14735, C110L/C171S/C178A/C257V/C414L/C573N/C590S/C789S/C812A/C819A/C904S/C966N/C974A); assay: Specific activity of IDE-CF with substrate V; assay type: biochemical; details: 0.5 μM fluorogenic substrate V
T3 sequence (P14735 whole entry C110L/C171S/C178A/C257V/C414L/C573N/C590S/C789S/C812A/C819A/C904S/C966N/C974A): as above

IDE-CF [9] = molecular target: T3, IDE-CF; assay: Sensitivity of cysteine-free IDE-CF to NEM, GSNO and H2O2; assay type: biochemical
IDE M1 = assay: NEM sensitivity of IDE mutant M1; assay type: biochemical, human; details: IDE M1 (C904S/C966N), 0.2 and 1 mM NEM, 1 h, substrate V
IDE M2 = assay: NEM sensitivity of IDE mutant M2; assay type: biochemical, human; details: IDE M2 (C789S/C904S/C966N), 0.2 and 1 mM NEM, 1 h, substrate V
IDE M3 = assay: NEM sensitivity of IDE mutant M3; assay type: biochemical, human; details: IDE M3 (C812A/C819A/C904S/C966N), 0.2 and 1 mM NEM, 1 h, substrate V
IDE M4 = assay: NEM sensitivity of IDE mutant M4; assay type: biochemical, human; details: IDE M4 (C789S/C904S/C966N/C974A), 0.2 and 1 mM NEM, 1 h, substrate V
IDE M5 = assay: NEM sensitivity of IDE mutant M5; assay type: biochemical, human; details: IDE M5 (C789S/C819A/C904S/C966N), 0.2 and 1 mM NEM, 1 h, substrate V
IDE-WT-C819A = assay: NEM sensitivity of IDE-WT-C819A; assay type: biochemical, human; details: 0–1 mM NEM, substrate V, compared to IDE-CF4 and IDE-WT
IDE-CF-A812C = assay: NEM sensitivity of IDE-CF-A812C; assay type: biochemical, human; details: fully purified, 0.15, 0.6 and 2.5 mM NEM, 1 h, substrate V
812C mutant of IDE = details: single 812C mutant, only Ni-NTA purified; cited from earlier work
IDE [10] = details: cited from earlier work
rat IDE = details: cited from earlier work

T1 sequence (P14735 whole entry): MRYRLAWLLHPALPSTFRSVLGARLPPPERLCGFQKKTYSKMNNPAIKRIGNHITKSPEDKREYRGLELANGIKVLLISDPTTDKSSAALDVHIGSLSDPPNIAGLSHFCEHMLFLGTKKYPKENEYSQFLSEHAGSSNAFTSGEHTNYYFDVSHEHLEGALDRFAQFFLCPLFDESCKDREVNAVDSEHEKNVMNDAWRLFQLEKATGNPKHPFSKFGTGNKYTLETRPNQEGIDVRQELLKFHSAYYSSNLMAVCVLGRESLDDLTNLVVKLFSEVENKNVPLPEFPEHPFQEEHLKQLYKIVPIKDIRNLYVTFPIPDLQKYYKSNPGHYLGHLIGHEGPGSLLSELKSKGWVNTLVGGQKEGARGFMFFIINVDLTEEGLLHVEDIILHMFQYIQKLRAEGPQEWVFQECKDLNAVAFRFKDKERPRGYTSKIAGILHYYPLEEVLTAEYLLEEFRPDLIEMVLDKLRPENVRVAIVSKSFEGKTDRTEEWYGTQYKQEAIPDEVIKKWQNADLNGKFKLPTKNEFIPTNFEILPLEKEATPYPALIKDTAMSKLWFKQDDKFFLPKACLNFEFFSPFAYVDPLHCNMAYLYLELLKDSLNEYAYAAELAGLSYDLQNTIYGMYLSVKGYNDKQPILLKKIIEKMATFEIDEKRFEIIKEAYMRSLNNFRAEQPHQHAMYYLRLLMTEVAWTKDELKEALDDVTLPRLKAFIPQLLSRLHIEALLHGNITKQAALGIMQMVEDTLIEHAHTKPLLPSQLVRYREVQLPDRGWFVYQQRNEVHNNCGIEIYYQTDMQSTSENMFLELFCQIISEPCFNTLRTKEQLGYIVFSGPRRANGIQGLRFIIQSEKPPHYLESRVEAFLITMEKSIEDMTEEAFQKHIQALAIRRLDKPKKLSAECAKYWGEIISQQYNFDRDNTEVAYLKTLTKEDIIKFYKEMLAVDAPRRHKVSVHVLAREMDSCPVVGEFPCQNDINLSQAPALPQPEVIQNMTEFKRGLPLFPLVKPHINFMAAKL

## N[C@@H](CCC(=O)N[C@@H](CSN=O)C(=O)NCC(=O)O)C(=O)O [GSNO, S-nitroso-glutathione]
IDE-WT [1]
  inactivation of IDE by NEM / H2O2 / GSNO (in words): potently inactivate the catalytic activity of IDE
IDE-CF-123
  inhibition by GSNO / H2O2 (in words): inactivated
  sensitivity to GSNO / H2O2 relative to IDE-WT (in words): more sensitive
IDE-CF-4
  inhibition by GSNO / H2O2 (in words): relatively resistant
IDE-CF-A819C
  sensitivity to GSNO / H2O2 relative to IDE-WT (in words): more sensitive

## Nc1ncnc2c1ncn2[C@@H]1O[C@H](COP(=O)(O)OP(=O)(O)OP(=O)(O)O)[C@@H](O)[C@H]1O [ATP]
IDE [2]
  activation of IDE (in words): can activate IDE

## insulin: large peptide substrate of IDE
IDE [3]
  Km of insulin relative to kinins: about five orders of magnitude lower
IDE [4]
  Km: 0.1 µM

## bradykinin: vasoactive nonapeptide hormone of the family of kinins, purchased from AnaSpec (RPPGFSPFR)
Human IDE (IDE-CF) [5]
  kcat for degradation by IDE: around 2,000 sec^−1
Human IDE (IDE-CF) [5]; inferred from Km
  affinity of IDE for kinins (in words): low affinity
Human IDE (IDE-CF) [6]; 30 min incubation
  major cleavage site: at the Pro/Phe site; also recorded: between residues Pro^7 and Phe^8
Human IDE (IDE-CF) [6]; 30 min incubation, MALDI-TOF peak m/z 653.32, not confirmed by MS-MS
  minor cleavage site: between residues Gly^4 and Phe^5
Human IDE (IDE-CF) [6]; purified recombinant human IDE, 30-minute incubation, MALDI-TOF
  hydrolysis by IDE (in words): hydrolyzed after 30-minute incubation
IDE [2]
  activation of IDE (in words): activator of IDE
ACE
  cleavage of C-terminal di-peptide: Same cleavage of the C-terminal di-peptide
NEP
  cleavage of C-terminal di-peptide: Same cleavage of the C-terminal di-peptide

## 7-methoxycoumarin-4-yl-acetyl-NPPGFSAFK-2,4-dinitrophenyl [substrate V]
IDE-WT [7]
  specific activity: 3.0 ± 0.4 min⁻¹
IDE-CF [8]
  specific activity: 4.5 ± 0.1 min⁻¹

## CCN1C(=O)C=CC1=O [NEM, N-ethyl-maleimide]
IDE-WT [1]; IDE-WT, 1 mM NEM, 1 h, 25 °C, pH 7.2, 0.5 μM substrate V, control = buffer only
  loss of activity: greater than 95%
IDE-WT [1]; IDE-WT, 0.2–1 mM NEM, 1 h, substrate V
  NEM sensitivity (in words): highly sensitive to inhibition by NEM
IDE-WT [1]
  inactivation of IDE by NEM / H2O2 / GSNO (in words): potently inactivate the catalytic activity of IDE
IDE-CF [9]; IDE-CF, 0.2–1 mM NEM, 1 h, substrate V
  NEM sensitivity (in words): relatively resistant to the inactivation by NEM
IDE-CF-123; IDE-CF-123, 0.2 and 1 mM NEM, 1 h, substrate V
  NEM sensitivity relative to IDE-WT (in words): more sensitive
IDE-CF-123; IDE-CF-123, 0.2 and 1 mM NEM, 1 h, substrate V, partially purified
  NEM sensitivity (in words): highly sensitive to NEM
IDE-CF-4; IDE-CF-4, 0.2 and 1 mM NEM, 1 h, substrate V, partially purified
  NEM sensitivity (in words): significantly reduced sensitivity
IDE M1
  NEM sensitivity (in words): susceptibility to NEM
IDE M2
  NEM sensitivity (in words): susceptibility to NEM
IDE M3
  NEM sensitivity (in words): partial resistance
IDE M4
  NEM sensitivity (in words): susceptibility to NEM
IDE M5
  NEM sensitivity (in words): partial resistance
IDE-WT-C819A
  NEM sensitivity (in words): less sensitive to NEM inactivation
IDE-CF-A819C; fully purified, 0.15, 0.6 and 2.5 mM NEM, 1 h, substrate V
  NEM sensitivity (in words): only IDE-CF-A819C is highly sensitive to the NEM inactivation
IDE-CF-A819C; partially purified (preliminary)
  NEM sensitivity (in words): sensitivity to NEM
IDE-CF-A812C
  NEM sensitivity (in words): does not induce a similar inhibition effect as Cys 819
812C mutant of IDE
  susceptibility to alkylation (in words): susceptible to alkylation
IDE [10]; S-alkylation of IDE by NEM
  mode of inhibition: non-competitive
IDE [10]
  inhibition by sulfhydryl-directed reactions (in words): sensitive to inhibition

## OO [H2O2, hydrogen peroxide]
IDE-WT [1]
  inactivation of IDE by NEM / H2O2 / GSNO (in words): potently inactivate the catalytic activity of IDE
IDE-CF [9]; cysteine-free IDE-CF, substrate V or FAβB, 1 mM reagent
  inhibition by GSNO / H2O2 / NEM (in words): insensitive to the inhibition
IDE-CF-123
  inhibition by GSNO / H2O2 (in words): inactivated
  sensitivity to GSNO / H2O2 relative to IDE-WT (in words): more sensitive
IDE-CF-4
  inhibition by GSNO / H2O2 (in words): relatively resistant
IDE-CF-A819C
  sensitivity to GSNO / H2O2 relative to IDE-WT (in words): more sensitive
Rat IDE
  inactivation of rat IDE (in words): inactivate rat IDE
IDE [10]
  inhibition by sulfhydryl-directed reactions (in words): sensitive to inhibition

## kallidin
Human IDE (IDE-CF) [5]
  kcat for degradation by IDE: around 2,000 sec^−1
Human IDE (IDE-CF) [6]; 30 min incubation
  major cleavage site: at the Pro/Phe site; also recorded: between Pro^8 and Phe^9
